From PMC10908623, “X-ray structure and characterization of a probiotic Lactobacillus rhamnosus Probio-M9 L-rhamnose isomerase” (Applied Microbiology and Biotechnology, 2024)

Assays:
[1] = molecular target: T1, LrL-RhI (L. rhamnosus Probio-M9 L-rhamnose isomerase) (Lacticaseibacillus rhamnosus, UniProt A0A171J5T1); assay: X-ray crystal structure of the complex (soaking), […] Å; assay type: binding; details: 30% (w/v) D-allose soak; Mn2+; crystals at pH 6.5; catalytic site; also a surface site
T1 construct: gene rhaA; full length, 426 residues, 48707 Da; synthesized gene in pQE60, C-terminal His-tag kept; E. coli JM109; homotetramer
T1 sequence (A0A171J5T1 1-426): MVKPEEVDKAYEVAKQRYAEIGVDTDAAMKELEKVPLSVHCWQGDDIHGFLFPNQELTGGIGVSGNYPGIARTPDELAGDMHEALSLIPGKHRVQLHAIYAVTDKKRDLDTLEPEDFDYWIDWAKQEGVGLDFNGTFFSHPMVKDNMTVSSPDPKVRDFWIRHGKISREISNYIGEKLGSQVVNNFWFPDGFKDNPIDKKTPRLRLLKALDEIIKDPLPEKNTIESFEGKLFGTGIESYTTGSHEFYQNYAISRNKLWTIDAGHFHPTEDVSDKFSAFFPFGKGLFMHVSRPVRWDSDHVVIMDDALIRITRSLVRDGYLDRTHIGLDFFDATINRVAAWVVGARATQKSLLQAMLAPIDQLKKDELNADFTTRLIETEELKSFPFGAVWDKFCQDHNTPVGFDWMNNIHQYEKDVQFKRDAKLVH

[2] = molecular target: T1, LrL-RhI (L. rhamnosus Probio-M9 L-rhamnose isomerase); assay: as above; assay type: binding; details: 30% (w/v) D-allulose soak; Mn2+; crystals at pH 6.5; catalytic site; also a surface site
[3] = molecular target: the molecule itself; assay: crystal structure; sitting-drop vapor diffusion at 20 C, 0.1 M MES pH 6.5, 15% PEG550MME; LrL-RhI alone and crystals soaked in 30% (w/v) L-rhamnose, D-allulose or D-allose; space group P212121, four molecules in the asymmetric unit

Molecule: OC[C@H]1OC(O)[C@H](O)[C@H](O)[C@@H]1O (stereo partly drawn) [D-allose]
- X-ray crystal structure of the complex (soaking), 1.71 Å [1]: The bound D-allose exhibits a pyranose form and appears to be β-D-allopyranose

Molecule: OC[C@]1(O)OC[C@@H](O)[C@@H](O)[C@H]1O [D-allulose]
- X-ray crystal structure of the complex (soaking), 1.73 Å [2]: The bound D-allulose shows a ring-opened structure.

B1: L-rhamnose isomerase from Lactobacillus rhamnosus Probio-M9 (enzyme, UniProt A0A171J5T1 1-426, looked up)
chain: MVKPEEVDKAYEVAKQRYAEIGVDTDAAMKELEKVPLSVHCWQGDDIHGFLFPNQELTGGIGVSGNYPGIARTPDELAGDMHEALSLIPGKHRVQLHAIYAVTDKKRDLDTLEPEDFDYWIDWAKQEGVGLDFNGTFFSHPMVKDNMTVSSPDPKVRDFWIRHGKISREISNYIGEKLGSQVVNNFWFPDGFKDNPIDKKTPRLRLLKALDEIIKDPLPEKNTIESFEGKLFGTGIESYTTGSHEFYQNYAISRNKLWTIDAGHFHPTEDVSDKFSAFFPFGKGLFMHVSRPVRWDSDHVVIMDDALIRITRSLVRDGYLDRTHIGLDFFDATINRVAAWVVGARATQKSLLQAMLAPIDQLKKDELNADFTTRLIETEELKSFPFGAVWDKFCQDHNTPVGFDWMNNIHQYEKDVQFKRDAKLVH
notes: L-rhamnose isomerase (putative LrL-RhI) of Lactobacillus rhamnosus Probio-M9, 426 amino acid residues, 48707 Da; also called LrL-RhI; L-RhI; not shown: His-tag, C-terminal, kept
- stoichiometry N [3]: 4
